# Measured values as given in US20210186972A1, “FORMULATIONS AND METHODS FOR THE PREVENTION AND TREATMENT OF TUMOR METASTASIS AND TUMORIGENESIS” (THE UNITED STATES OF AMERICA, AS REPRESENTED BY THE …, priority 2018, published 2021).
# What was measured:
# [1] = test system: Pol II transcription; experiment: Pol II transcription status: CUGBP and SC35 immunolabeling; format: cell-based
# Description: To further determine whether metarrestin interferes with Pol II transcription in general, CUGBP was immunolabeled. The steady state nuclear distribution of CUGBP, a multifunctional hnRNP protein highly enriched in the PNC, is dependent upon Pol II transcription.
# [2] = Anchorage-independent growth, soft agar assay of screening hits; format: cell-based; settings: screening hit
# Description: (§1) A metastatic prostate cancer cell line, PC3M, was developed in order to screen small molecules that effectively disassemble PNCs (see Pettaway, et al., “Selection of highly metastatic variants of different human prostatic carcinomas using orthotopic implantation in nude mice,” Clin. Cancer Res., (2): 1627-36 (1996), incorporated herein in its entirety). PC3M has a […] stably express GFP-PTB (polypyrimidine track binding protein) (FIG. 1, top panels), an essential component of PNCs (see Huang, et al., “The perinucleolar compartment and transcription,” Journal of Cell Biology, (143): 35-47 (1998), incorporated herein in its entirety). Compounds able to reduce PNC prevalence by 50% were filtered in secondary assays to eliminate those that induced apoptosis, DNA damage, generic cytotoxicity, or cell-cycle blockage (see Norton, et al., “Automated high-content screening for compounds that disassemble the perinucleolar compartment,” J Biomol Screen, (14): 1045-53 (2009) and Frankowski, et al., “Discovery and Development of Small Molecules That Reduce PNC Prevalence, in Probe Reports from the NIH Molecular Libraries Program, Bethesda (Md.).(2010), incorporated herein in their entirety). The remaining hits were evaluated for invasion inhibition through MATRIGEL gelatinous protein mixture and anchorage-independent growth inhibition using soft agar assays.
# [3] = Cytotoxicity secondary assay of screening hits; format: cell-based; settings: screening hit
# Description: as §1
# [4] = test system: PC3M-GFP-PTB cells; experiment: PNC prevalence / PNC disassembly in PC3M-GFP-PTB cells; format: cell-based, human; settings: screening hit
# Description: FIG. 1 is a graph showing the concentration-response curve against PNC prevalence in PC3M (a metastatic prostate cancer cell line)-GFP (green fluorescent protein)-PTB (polypyrimidine tract-binding protein) cells (squares, PC3M, has a PNC prevalence of 75-85% in the absence of treatment) and cytotoxicity as measured by cellular ATP (CELLTITER GLO™) (circles). Representative PTB-GFP images for cells at the indicated concentrations (arrowheads indicate PNCs) (scale bar=5 μm) are shown in the three panels above the graph. The relative signal (%) is along the y-axis and Metarrestin [log M] is along the x-axis.
# as §1
# [5] = Invasion through MATRIGEL, screening hits; format: cell-based; settings: screening hit
# Description: as §1
# [6] = test system: PC3M cells; experiment: PNC disassembly by biotin-metarrestin in cultured cells; format: cell-based, human; settings: 1 μM, 24 hours (FIG. 60)
# Description: FIG. 60 is a set of panels showing the effectiveness of biotin-metarrestin in disassembling PNCs. The effects of metarrestin and biotin-metarrestin were compared in PC3M cells treated at 1 μM or untreated for 24 hours. Arrows indicate PNCs. Scale bar=5 μm.
smiles,measurement,setting,value
"CC[C@H](C)[C@@H]1NC(=O)CNC(=O)[C@@H]2Cc3c([nH]c4cc(O)ccc34)[S+]([O-])C[C@@H](NC(=O)CNC1=O)C(=O)N[C@@H](CC(N)=O)C(=O)N1C[C@H](O)C[C@H]1C(=O)N[C@@H]([C@@H](C)[C@@H](O)CO)C(=O)N2 (stereo in doubt) [α-amanitin, reference compound]",Localization of CUGBP,[1],induces a localization shift to the cytoplasm
same,SC35 distribution pattern,[1],changed to isolated large dots
N=c1c2c(-c3ccccc3)c(-c3ccccc3)n(Cc3ccccc3)c2ncn1CCCO [MLS000556915],Soft agar growth,[2],soft agar growth inhibitor
same,Cytotoxicity,[3],lack of cytotoxicity
same,PNC inhibition,[4],potency as a PNC inhibitor
same,Invasion,[5],ability to block invasion
"N=c1c2c(-c3ccccc3)c(-c3ccccc3)n(Cc3cccc(C#CCCCCNC(=O)CCCC[C@@H]4SC[C@@H]5NC(=O)N[C@@H]54)c3)c2ncn1[C@H]1CC[C@H](O)CC1 [biotin-conjugated metarrestin, N-(6-(3-((3-(trans-4-hydroxycyclohexyl)-4-imino-5,6-diphenyl-3,4-dihydro-7H-pyrrolo[2,3-d]pyrimidin-7-yl)methyl)phenyl)hex-5-yn-1-yl)-5-((3aS,4S,6aR)-2-oxohexahydro-1H-thieno[3,4-d]imidazol-4-yl)pentanamide]",PNC disassembly in cultured cells,[6],maintains its efficacy for PNC disassembly
